{
  "source": "patent US20220370537A1",
  "about": "“PHARMACEUTICAL COMPOSITION AND FUNCTIONAL HEALTH FOOD FOR TREATING BENIGN PROSTATIC HYPERPLASIA INCLUDING LAURUS NOBILIS AS ACTIVE INGREDIENT, AND METHOD OF TREATING BENIGN PROSTATIC HYPERPLASIA USING THE SAME” (KOSABIO INC., priority 2020, published 2022)",
  "type_in_all_cases": "in vivo, Wistar rats",
  "key": {"[1]": {"system": "benign prostatic hyperplasia (testosterone-induced prostate hypertrophy)", "assay": "Prophylactic effect on benign prostatic hyperplasia: change in prostate weight and volume", "conditions": "FINA 0.8 mg/kg orally, BPH-induced rats, prophylactic test", "experimental": "Male Wistar rats at 8 weeks of age (Samtako, Korea) were acclimated. When the rats weighed about 320 g on average (12 weeks old), they were divided into groups of 5.\n(§1) After removing the testis therefrom, the rats in one of the groups were allowed to revive for about 24 hours. Propionate testosterone was subcutaneously injected at a dose of 7 mg/kg into the castrated group and the normal group to induce prostate hypertrophy for 8 weeks (BPH-induced groups). After induction of prostate hypertrophy for 8 weeks, the rats were treated as follows. Along with testosterone injection, the bay leaf extracts were orally administered at predetermined doses (mg/kg) once a day (seven times a week) for 8 weeks. Separately, Finasteride, which is a commercially available therapeutic agent for benign prostatic hyperplasia, was orally administered to a positive control.\nAfter completion of the experiment, the rats of all the experimental groups were euthanized. The prostate tissues and main organs were excised therefrom and measured for weight and volume using an electronic scale for animal weights and a caliper (mm^3) (Table 3)."}, "[2]": {"system": "benign prostatic hyperplasia (testosterone-induced prostate hypertrophy)", "assay": "Therapeutic efficacy on benign prostatic hyperplasia: change in prostate weight and volume", "conditions": "FINA 0.8 mg/kg orally, BPH-induced rats, therapeutic test", "experimental": "(§2) Male Wistar rats at 8 weeks of age (Samtako, Korea) were acclimated. When the rats weighed about 380 g on average (19 weeks old), they were divided into groups of 7.\nas §1, with “5” for “7”\nAfter completion of the experiment, the rats of all the experimental groups were euthanized. The prostate tissues and main organs were excised therefrom and measured for weight and volume using an electronic scale for animal weights and a caliper (mm^3) (Table 1)."}, "[3]": {"assay": "Therapeutic test: hepatotoxicity and renal function, serum biochemical index", "conditions": "FINA 0.8 mg/kg orally", "experimental": "as §2\nas §1, with “5” for “7”\nFor use in biochemical index analysis, blood samples were taken from the rats of all the groups through abdominal veins. The blood sample was coagulated for about 30 min and centrifuged at 10,000 rpm for 5 min to separate sera. The sera thus obtained were measured for liver function index (AST and ALT), lipoprotein levels (total cholesterol (T-CHO), HDL cholesterol (HDL-C), LDL cholesterol (LDL-C)), and kidney function index (creatine), using a biochemical analyzer (AU480, Beckman Coulter, USA) (Table 2)."}, "[4]": {"assay": "Prophylactic test: hepatotoxicity and renal function, serum biochemical index", "conditions": "FINA 0.8 mg/kg orally", "experimental": "Male Wistar rats at 8 weeks of age (Samtako, Korea) were acclimated. When the rats weighed about 320 g on average (12 weeks old), they were divided into groups of 5. After removing the testis therefrom, the rats in one of the groups were allowed to revive for about 24 hours. Propionate testosterone was subcutaneously injected at a dose of 7 mg/kg into the castrated group and the normal group to induce prostate hypertrophy for 8 weeks (BPH-induced groups). After induction of prostate hypertrophy for 8 weeks, the rats were treated as follows. Along with testosterone injection, the bay leaf extracts were orally administered at predetermined doses (mg/kg) once a day (seven times a week) for 8 weeks. Separately, Finasteride, which is a commercially available therapeutic agent for benign prostatic hyperplasia, was orally administered to a positive control. For use in biochemical index analysis, blood samples were taken from the rats of all the groups through abdominal veins. The blood sample was coagulated for about 30 min and centrifuged at 10,000 rpm for 5 min to separate sera. The sera thus obtained were measured for liver function index (AST and ALT), lipoprotein levels (total cholesterol (T-CHO), HDL cholesterol (HDL-C), LDL cholesterol (LDL-C)), and kidney function index (creatine), using a biochemical analyzer (AU480, Beckman Coulter, USA) (Table 4)."}},
  "data": [
    {"smiles": "CC(C)(C)NC(=O)[C@H]1CC[C@H]2[C@@H]3CC[C@H]4NC(=O)C=C[C@]4(C)[C@H]3CC[C@]12C", "note": "[Finasteride]", "values": [
      {"measurement": "Kidney weight", "setting": "[1]", "result": 0.58, "unit": "g"},
      {"measurement": "Liver weight", "setting": "[1]", "result": 8.09, "unit": "g"},
      {"measurement": "Prostate volume", "setting": "[1]", "result": 4626.31, "unit": "mm^3"},
      {"measurement": "Prostate weight (b)", "setting": "[1]", "result": 1.43, "unit": "g"},
      {"measurement": "Ratio (b/a*100)", "setting": "[1]", "result": 0.43, "unit": "%"},
      {"measurement": "Weight (a)", "setting": "[1]", "result": 328.3, "unit": "g"},
      {"measurement": "Kidney weight", "setting": "[2]", "result": 0.65, "unit": "g"},
      {"measurement": "Liver weight", "setting": "[2]", "result": 10.36, "unit": "g"},
      {"measurement": "Prostate volume", "setting": "[2]", "result": 3459.59, "unit": "mm^3"},
      {"measurement": "Prostate weight (b)", "setting": "[2]", "result": 1.16, "unit": "g"},
      {"measurement": "Ratio (b/a*100)", "setting": "[2]", "result": 0.28, "unit": "%"},
      {"measurement": "Weight (a)", "setting": "[2]", "result": 426.6, "unit": "g"},
      {"measurement": "ALT", "setting": "[3]", "result": 50.3, "unit": "U/L"},
      {"measurement": "AST", "setting": "[3]", "result": 83.1, "unit": "U/L"},
      {"measurement": "CRE", "setting": "[3]", "result": 0.3, "unit": "mg/dL"},
      {"measurement": "HDL", "setting": "[3]", "result": 43.6, "unit": "mg/dL"},
      {"measurement": "LDL", "setting": "[3]", "result": 14.1, "unit": "mg/dL"},
      {"measurement": "T-CHO", "setting": "[3]", "result": 70.7, "unit": "mg/dL"},
      {"measurement": "ALT", "setting": "[4]", "result": 51.6, "unit": "U/L"},
      {"measurement": "AST", "setting": "[4]", "result": 140.4, "unit": "U/L"},
      {"measurement": "CRE", "setting": "[4]", "result": 0.2, "unit": "mg/dL"},
      {"measurement": "HDL", "setting": "[4]", "result": 43.3, "unit": "mg/dL"},
      {"measurement": "LDL", "setting": "[4]", "result": 17.0, "unit": "mg/dL"},
      {"measurement": "T-CHO", "setting": "[4]", "result": 60.6, "unit": "mg/dL"}
    ]}
  ]
}
